Data reported in ChEMBL document CHEMBL5291721, “A preclinical secondary pharmacology resource illuminates target-adverse drug reaction associations of marketed drugs” (Nat Commun, 2023).

Columns and labels:
[1] = molecular target: Neuronal acetylcholine receptor subunit alpha-4 (Homo sapiens, UniProt P43681)
[2] = molecular target: T1, 5-hydroxytryptamine receptor 2C (Homo sapiens, UniProt P28335)
T1 sequence (P28335 whole entry): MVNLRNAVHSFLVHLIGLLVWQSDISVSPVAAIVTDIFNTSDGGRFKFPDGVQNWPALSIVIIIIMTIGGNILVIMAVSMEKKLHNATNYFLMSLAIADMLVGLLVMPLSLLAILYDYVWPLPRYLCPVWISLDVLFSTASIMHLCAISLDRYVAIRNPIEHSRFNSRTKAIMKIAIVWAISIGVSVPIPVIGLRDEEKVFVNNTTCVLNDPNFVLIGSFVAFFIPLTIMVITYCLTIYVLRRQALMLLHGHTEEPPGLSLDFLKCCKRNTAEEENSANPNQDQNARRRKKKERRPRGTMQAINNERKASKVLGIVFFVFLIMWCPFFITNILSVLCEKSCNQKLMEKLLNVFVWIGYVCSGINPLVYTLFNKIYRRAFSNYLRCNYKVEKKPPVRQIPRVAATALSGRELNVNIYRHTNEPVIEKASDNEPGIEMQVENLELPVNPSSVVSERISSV

Cannabinoid receptor 1 = Cannabinoid receptor 1 (Homo sapiens, UniProt P21554); format: functional, cell-based
[3] = molecular target: T2, Amine oxidase [flavin-containing] A (Homo sapiens, UniProt P21397); format: functional
T2 sequence (P21397 whole entry): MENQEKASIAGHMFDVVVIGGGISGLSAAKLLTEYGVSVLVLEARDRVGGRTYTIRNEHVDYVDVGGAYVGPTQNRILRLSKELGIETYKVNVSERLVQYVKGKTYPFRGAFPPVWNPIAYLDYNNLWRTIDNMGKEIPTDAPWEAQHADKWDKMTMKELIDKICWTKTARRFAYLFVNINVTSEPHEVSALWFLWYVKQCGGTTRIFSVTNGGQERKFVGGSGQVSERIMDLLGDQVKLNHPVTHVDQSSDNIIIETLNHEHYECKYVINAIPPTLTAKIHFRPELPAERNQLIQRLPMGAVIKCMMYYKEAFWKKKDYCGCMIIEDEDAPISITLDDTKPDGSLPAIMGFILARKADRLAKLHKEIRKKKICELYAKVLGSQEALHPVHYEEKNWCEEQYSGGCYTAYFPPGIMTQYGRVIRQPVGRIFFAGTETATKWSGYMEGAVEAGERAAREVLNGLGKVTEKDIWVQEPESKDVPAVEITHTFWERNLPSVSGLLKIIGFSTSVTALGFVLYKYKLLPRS

Adenosine receptor A1 = molecular target: T3, Adenosine receptor A1 (Homo sapiens, UniProt P30542)
T3 sequence (P30542 whole entry): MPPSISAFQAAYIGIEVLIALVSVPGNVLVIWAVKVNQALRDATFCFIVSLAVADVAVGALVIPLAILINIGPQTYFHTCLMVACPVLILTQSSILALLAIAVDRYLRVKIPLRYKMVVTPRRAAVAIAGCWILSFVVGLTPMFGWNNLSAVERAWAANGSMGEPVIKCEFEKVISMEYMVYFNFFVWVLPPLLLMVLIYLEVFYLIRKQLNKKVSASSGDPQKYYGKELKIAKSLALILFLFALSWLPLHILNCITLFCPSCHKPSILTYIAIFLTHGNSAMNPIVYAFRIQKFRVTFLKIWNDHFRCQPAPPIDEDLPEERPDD

Histamine H2 receptor = Histamine H2 receptor (Homo sapiens, UniProt P25021); format: functional, cell-based
[4] = molecular target: T4, Alpha-2A adrenergic receptor (Homo sapiens, UniProt P08913); format: functional, cell-based
T4 sequence (P08913 whole entry): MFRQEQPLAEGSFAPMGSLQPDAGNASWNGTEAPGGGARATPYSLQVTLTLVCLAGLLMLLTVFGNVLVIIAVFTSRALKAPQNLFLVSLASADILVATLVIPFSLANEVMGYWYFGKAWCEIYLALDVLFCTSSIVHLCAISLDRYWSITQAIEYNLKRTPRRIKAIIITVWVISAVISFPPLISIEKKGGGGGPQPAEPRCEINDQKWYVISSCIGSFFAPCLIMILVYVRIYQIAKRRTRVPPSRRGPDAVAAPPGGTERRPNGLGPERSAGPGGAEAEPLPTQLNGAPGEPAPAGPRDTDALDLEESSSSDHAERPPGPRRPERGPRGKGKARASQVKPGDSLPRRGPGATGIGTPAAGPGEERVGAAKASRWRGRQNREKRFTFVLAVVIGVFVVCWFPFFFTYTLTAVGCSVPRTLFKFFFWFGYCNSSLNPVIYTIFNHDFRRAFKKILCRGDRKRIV

Melanocortin receptor 4 = Melanocortin receptor 4 (Homo sapiens, UniProt P32245)
[5] = molecular target: Voltage-dependent L-type calcium channel subunit alpha-1C (Rattus norvegicus, UniProt P22002); format: functional
[6] = molecular target: Sodium-dependent dopamine transporter (Homo sapiens, UniProt Q01959)
[7] = molecular target: cGMP-inhibited 3',5'-cyclic phosphodiesterase 3A (Homo sapiens, UniProt Q14432); format: functional
[8] = molecular target: Growth hormone secretagogue receptor type 1 (Homo sapiens, UniProt Q92847)
[9] = molecular target: T5, Alpha-1A adrenergic receptor (Homo sapiens, UniProt P35348)
T5 sequence (P35348 whole entry): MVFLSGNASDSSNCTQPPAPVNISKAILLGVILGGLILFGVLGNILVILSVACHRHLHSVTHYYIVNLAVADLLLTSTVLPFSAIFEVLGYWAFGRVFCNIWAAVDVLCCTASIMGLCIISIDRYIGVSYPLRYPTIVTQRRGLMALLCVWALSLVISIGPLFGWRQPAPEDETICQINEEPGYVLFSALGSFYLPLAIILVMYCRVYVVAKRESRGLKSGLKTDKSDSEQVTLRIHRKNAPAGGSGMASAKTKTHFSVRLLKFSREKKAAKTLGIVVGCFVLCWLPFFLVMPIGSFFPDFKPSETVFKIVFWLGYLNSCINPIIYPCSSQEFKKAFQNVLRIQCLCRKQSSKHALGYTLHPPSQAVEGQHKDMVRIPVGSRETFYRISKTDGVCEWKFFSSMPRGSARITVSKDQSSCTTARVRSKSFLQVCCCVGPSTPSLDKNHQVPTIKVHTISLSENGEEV

[10] = molecular target: T5, Alpha-1A adrenergic receptor; format: functional, cell-based
[11] = molecular target: 5-hydroxytryptamine receptor 2B (Homo sapiens, UniProt P41595); format: functional, cell-based
Note: assay procedure not described here.

Chain of Voltage-dependent L-type calcium channel subunit alpha-1C (P22002 whole entry): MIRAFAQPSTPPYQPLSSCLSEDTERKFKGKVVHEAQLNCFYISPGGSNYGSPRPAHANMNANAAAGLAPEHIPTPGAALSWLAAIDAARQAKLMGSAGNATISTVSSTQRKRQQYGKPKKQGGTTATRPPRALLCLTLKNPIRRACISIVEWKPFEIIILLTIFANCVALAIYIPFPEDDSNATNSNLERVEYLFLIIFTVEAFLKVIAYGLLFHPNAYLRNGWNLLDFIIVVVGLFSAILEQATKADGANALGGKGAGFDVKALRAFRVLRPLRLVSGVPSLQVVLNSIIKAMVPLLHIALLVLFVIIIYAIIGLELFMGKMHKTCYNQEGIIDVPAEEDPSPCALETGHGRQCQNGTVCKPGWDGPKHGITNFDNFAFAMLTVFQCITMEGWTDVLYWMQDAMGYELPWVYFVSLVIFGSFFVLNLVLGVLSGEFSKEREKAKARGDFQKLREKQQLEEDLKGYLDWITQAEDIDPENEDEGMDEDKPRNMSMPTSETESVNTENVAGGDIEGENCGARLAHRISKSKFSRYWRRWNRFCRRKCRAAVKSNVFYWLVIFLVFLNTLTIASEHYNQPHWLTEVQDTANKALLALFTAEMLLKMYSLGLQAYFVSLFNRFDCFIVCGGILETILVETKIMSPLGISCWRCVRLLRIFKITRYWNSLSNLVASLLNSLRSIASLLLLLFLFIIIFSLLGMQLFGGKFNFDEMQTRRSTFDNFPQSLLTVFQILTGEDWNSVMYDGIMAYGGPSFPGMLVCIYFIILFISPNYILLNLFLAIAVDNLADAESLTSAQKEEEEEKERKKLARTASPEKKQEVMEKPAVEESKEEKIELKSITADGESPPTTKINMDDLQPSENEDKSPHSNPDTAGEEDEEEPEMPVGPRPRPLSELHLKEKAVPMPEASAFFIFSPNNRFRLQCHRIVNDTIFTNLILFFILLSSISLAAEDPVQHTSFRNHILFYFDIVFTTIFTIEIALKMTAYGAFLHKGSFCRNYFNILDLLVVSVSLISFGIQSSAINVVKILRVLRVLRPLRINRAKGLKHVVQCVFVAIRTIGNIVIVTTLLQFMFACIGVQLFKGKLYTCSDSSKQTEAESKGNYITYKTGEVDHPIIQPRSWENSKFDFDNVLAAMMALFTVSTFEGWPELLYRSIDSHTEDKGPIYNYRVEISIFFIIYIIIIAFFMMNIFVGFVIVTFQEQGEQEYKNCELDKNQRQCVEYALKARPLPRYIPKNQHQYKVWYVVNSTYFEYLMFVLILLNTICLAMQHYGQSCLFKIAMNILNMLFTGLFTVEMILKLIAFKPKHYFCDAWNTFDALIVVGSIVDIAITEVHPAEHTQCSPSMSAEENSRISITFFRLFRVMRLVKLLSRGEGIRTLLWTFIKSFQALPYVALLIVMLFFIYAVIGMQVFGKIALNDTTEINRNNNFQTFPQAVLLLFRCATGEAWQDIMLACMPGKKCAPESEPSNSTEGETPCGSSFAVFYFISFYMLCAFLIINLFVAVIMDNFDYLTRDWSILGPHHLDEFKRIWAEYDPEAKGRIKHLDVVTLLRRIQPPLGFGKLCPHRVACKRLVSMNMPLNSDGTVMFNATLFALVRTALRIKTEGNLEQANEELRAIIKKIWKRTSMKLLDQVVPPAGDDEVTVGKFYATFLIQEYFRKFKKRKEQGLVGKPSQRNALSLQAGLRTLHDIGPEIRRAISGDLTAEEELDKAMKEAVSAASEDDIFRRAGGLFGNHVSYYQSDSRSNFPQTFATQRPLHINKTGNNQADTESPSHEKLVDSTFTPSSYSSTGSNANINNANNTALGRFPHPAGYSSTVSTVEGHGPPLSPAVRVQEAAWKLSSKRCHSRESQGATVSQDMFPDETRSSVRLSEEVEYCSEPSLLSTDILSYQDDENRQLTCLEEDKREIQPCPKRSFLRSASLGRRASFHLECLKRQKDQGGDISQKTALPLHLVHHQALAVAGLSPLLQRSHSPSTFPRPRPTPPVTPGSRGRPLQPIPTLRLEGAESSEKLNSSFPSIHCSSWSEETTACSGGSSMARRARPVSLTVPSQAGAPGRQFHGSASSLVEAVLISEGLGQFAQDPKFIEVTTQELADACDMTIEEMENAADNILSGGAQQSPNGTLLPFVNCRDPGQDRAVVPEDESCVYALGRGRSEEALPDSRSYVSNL
Chain of Melanocortin receptor 4 (P32245 whole entry): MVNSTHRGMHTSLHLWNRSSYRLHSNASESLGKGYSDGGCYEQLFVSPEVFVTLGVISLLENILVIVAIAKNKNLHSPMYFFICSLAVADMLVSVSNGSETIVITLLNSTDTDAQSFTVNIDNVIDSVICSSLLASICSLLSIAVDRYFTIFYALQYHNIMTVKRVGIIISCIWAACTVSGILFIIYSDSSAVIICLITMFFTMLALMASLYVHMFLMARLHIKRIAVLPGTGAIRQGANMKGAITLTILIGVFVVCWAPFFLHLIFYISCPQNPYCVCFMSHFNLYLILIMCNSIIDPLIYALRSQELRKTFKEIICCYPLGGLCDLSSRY
Chain of Growth hormone secretagogue receptor type 1 (Q92847 whole entry): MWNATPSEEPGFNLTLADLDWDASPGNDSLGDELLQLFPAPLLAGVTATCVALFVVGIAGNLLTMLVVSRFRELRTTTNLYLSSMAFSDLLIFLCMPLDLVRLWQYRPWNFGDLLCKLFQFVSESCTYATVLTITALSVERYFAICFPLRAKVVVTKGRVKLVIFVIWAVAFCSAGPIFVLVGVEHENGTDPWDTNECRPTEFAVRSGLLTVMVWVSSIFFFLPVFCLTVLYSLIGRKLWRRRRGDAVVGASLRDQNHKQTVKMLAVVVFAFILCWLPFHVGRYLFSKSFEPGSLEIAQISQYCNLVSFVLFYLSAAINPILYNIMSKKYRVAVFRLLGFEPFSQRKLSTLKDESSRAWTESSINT
Chain of cGMP-inhibited 3',5'-cyclic phosphodiesterase 3A (Q14432 whole entry): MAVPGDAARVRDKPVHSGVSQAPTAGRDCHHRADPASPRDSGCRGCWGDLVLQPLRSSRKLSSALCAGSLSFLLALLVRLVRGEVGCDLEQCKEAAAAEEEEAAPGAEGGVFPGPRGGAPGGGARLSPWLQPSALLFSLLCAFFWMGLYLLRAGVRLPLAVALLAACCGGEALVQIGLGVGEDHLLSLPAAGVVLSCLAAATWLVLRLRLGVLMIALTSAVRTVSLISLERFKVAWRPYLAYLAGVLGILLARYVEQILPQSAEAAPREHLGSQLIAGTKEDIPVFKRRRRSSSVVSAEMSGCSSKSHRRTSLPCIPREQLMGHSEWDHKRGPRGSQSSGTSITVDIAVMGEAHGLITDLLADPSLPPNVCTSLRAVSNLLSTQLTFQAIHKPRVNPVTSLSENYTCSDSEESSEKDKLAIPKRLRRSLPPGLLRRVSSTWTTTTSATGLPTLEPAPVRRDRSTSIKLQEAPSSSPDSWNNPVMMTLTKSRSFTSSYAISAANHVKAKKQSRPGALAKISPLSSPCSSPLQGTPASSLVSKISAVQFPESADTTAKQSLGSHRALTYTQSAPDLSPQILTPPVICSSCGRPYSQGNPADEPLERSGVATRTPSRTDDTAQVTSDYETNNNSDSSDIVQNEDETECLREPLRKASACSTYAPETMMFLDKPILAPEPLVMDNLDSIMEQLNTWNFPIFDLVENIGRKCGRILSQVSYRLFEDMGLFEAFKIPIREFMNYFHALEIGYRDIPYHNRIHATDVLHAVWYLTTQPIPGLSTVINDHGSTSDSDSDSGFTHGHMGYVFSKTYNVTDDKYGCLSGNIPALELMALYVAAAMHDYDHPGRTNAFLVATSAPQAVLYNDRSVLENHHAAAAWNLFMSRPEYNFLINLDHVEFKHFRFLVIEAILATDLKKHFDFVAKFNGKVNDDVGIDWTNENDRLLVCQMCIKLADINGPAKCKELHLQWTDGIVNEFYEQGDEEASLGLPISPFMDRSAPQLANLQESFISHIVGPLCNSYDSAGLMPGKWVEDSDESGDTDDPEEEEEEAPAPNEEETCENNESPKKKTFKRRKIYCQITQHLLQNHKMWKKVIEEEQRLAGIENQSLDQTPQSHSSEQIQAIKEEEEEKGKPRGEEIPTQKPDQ
Chain of Neuronal acetylcholine receptor subunit alpha-4 (P43681 whole entry): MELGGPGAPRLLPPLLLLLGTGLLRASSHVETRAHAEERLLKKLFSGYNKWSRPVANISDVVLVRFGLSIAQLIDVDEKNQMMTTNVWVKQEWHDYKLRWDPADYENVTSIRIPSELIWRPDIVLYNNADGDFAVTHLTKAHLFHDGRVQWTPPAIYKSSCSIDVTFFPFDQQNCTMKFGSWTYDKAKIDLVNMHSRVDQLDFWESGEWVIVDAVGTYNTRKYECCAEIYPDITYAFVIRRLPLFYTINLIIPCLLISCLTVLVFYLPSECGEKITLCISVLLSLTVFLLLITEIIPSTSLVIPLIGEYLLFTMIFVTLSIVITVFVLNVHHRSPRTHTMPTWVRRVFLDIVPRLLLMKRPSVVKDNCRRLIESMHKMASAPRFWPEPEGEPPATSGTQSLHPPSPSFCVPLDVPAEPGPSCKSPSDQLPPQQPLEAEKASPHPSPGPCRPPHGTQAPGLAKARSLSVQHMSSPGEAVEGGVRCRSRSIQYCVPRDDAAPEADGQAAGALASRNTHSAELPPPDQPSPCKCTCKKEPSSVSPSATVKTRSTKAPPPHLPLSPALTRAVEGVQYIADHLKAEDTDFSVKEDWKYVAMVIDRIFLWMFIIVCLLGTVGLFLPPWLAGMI
Chain of Histamine H2 receptor (P25021 whole entry): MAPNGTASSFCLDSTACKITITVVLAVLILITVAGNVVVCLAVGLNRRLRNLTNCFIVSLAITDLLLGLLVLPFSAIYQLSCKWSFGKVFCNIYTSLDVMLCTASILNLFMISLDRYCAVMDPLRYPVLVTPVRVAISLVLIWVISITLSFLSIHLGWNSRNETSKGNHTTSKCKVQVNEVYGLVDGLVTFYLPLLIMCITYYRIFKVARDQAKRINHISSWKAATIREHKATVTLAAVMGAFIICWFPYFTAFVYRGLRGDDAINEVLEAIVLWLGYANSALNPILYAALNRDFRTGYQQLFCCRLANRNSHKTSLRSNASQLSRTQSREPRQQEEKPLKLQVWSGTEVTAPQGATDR

Row | Compound | AC50 [1] | AC50 [2] | AC50 (Cannabinoid receptor 1) | AC50 [3] | AC50 (Adenosine receptor A1) | AC50 (Histamine H2 receptor) | AC50 [4] | AC50 (Melanocortin receptor 4) | AC50 [5] | AC50 [6] | AC50 [7] | AC50 [8] | AC50 [9] | AC50 [10] | AC50 [11]
1 | CC(C)CN(C[C@@H](O)[C@H](Cc1ccccc1)NC(=O)O[C@H]1CCOC1)S(=O)(=O)c1ccc(N)cc1 | > 30 µM | > 30 µM | 12 µM | > 10 µM | > 30 µM | > 10 µM | > 10 µM | > 30 µM | > 10 µM | > 10 µM | > 30 µM | > 30 µM | > 10 µM | > 30 µM | > 10 µM
2 | CC1=C(CC(=O)O)c2cc(F)ccc2/C1=C\c1ccc([S+](C)[O-])cc1 (stereo not given) | > 10 µM | > 30 µM | > 30 µM | > 10 µM | > 30 µM | > 10 µM | > 10 µM | > 30 µM | > 10 µM | > 30 µM | > 30 µM | > 30 µM | > 10 µM | > 30 µM | > 10 µM
3 | Cc1nnc2n1-c1ccc(Cl)cc1C(c1ccccc1)=NC2 [ALPRAZOLAM] | > 10 µM | > 30 µM | > 30 µM | > 10 µM | > 30 µM | > 10 µM | > 10 µM | > 30 µM | > 10 µM | > 10 µM | > 30 µM | > 30 µM | > 10 µM | > 30 µM | > 10 µM
4 | CCN(CC)CCCN(c1ccccc1)C1Cc2ccccc2C1 [APRINDINE] | > 30 µM | 8.5 µM | > 30 µM | > 30 µM | > 30 µM | > 30 µM | > 30 µM | > 10 µM | > 10 µM | 11.6 µM | > 30 µM | 15 µM | 1.3 µM | > 30 µM | > 30 µM
5 | C[C@@H](Cc1ccccc1)N(C)Cc1ccccc1 [BENZPHETAMINE] | > 10 µM | > 30 µM | > 30 µM | > 10 µM | > 10 µM | > 10 µM | > 10 µM | > 10 µM | > 10 µM | 9.9 µM | > 30 µM | > 10 µM | 6.96 µM | > 30 µM | > 10 µM
6 | COc1ccc(C(Cl)=C(c2ccc(OC)cc2)c2ccc(OC)cc2)cc1 [CHLOROTRIANISENE] | > 30 µM | > 30 µM | > 30 µM | > 30 µM | > 30 µM | > 30 µM | > 30 µM | > 10 µM | > 10 µM | > 30 µM | > 30 µM | > 30 µM | > 10 µM | > 30 µM | > 30 µM
